Laboratory results published in patent publication US9878986B2, “Compounds for selective histone deacetylase inhibitors, and pharmaceutical composition comprising the same” (CHONG KUN DANG PHARMACEUTICAL CORP., priority 2013, dated 2018).

Columns and labels:
HDAC 6 = target: T1, HDAC 6 (Homo sapiens, UniProt Q9UBN7); assay: HDAC panel by Reaction Biology Corp., HDAC 6; type: biochemical; set-up: Reaction Biology Corp; conditions: for IC50: Table 15, Reaction Biology Corp., read-out: HDAC6 inhibitory activity; for Selectivity (HDAC6/1): ratio of the HDAC 1 and HDAC 6 values of Table 15; for selectivity for HDAC6 over HDAC1: text on Table 15
T1 sequence (Q9UBN7 1-1215): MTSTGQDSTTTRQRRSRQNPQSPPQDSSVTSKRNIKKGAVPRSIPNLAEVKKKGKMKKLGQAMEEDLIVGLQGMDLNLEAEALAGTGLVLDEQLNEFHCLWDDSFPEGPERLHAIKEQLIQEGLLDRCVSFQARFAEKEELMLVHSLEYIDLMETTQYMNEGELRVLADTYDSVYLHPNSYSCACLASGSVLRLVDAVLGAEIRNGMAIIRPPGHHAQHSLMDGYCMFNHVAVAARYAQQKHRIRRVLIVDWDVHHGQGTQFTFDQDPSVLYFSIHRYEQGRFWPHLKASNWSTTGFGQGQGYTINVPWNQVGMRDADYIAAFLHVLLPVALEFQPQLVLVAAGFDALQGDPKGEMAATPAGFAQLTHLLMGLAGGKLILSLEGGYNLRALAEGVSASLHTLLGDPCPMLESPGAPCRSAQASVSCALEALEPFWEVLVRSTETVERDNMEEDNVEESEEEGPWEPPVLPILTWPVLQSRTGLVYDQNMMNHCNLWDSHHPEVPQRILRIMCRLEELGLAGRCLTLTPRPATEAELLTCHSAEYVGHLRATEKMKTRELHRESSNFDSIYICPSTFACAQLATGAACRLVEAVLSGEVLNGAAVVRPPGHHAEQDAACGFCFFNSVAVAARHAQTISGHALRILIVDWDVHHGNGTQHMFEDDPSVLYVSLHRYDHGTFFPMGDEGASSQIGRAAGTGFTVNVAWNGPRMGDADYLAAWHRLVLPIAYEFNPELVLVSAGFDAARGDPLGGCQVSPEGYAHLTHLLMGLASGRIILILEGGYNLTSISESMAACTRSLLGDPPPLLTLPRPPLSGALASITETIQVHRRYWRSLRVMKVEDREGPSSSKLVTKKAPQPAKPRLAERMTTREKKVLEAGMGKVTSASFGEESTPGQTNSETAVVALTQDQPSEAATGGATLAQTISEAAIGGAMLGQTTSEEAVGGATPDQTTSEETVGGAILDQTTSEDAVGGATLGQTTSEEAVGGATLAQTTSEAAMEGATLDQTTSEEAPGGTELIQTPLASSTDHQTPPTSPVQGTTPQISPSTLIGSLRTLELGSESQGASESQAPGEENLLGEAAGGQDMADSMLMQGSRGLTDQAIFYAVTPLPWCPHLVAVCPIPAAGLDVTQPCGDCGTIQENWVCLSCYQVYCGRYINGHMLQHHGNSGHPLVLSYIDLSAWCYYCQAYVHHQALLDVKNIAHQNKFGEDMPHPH
Text: (§1) The inhibitory activities of Compounds 255 and 374 on all HDACs were confirmed (by Reaction Biology Corp.).

[1] = system: adjuvant-induced arthritis models; assay: Adjuvant-induced arthritis models; type: in vivo, Lewis rat; conditions: for clinical score: intraperitoneally, score 0 to 16; for arthritis symptoms improved by: 3, 10 and 30 mg/kg twice a day, versus vehicle group; for efficacy compared with the control compound Tofacitinib: clinical score
Protocol: Complete Freund's Adjuvant (Chondrex) containing 10 mg/mL Heat killed mycobacteria toxin was sufficiently mixed, and then 100 μL was taken and intradermally injected into the upper part of the tail of Lewis rat to induce arthritis. After 10 days, the length of the ankle circumference of rats was measured, and then the rats were grouped and used in the experiment. Each compound was intraperitoneally injected twice a day. The clinical score, the length of the ankle circumference, and the weight were measured twice a week after the administration of the compounds. The clinical scores were assigned from 0 to 4 based on the thesis of Woods, etc. (J. Immunology, 1214-1222, 2001), and the total clinical score was determined by evaluating the feet of each rat and summing up the scores (normal: 0, most severe edema: 16). The length of the ankle circumference was calculated based on the formula of 2×3.14(√(a^2+b^2/2)) after measuring top-bottom sides (a) of the foot and lateral sides (b) of the foot. The final value was determined by averaging the calculated values of each foot.

HDAC 8 = target: T2, HDAC 8 (Homo sapiens, UniProt Q9BY41); assay: HDAC panel by Reaction Biology Corp., HDAC 8; type: biochemical; conditions: read-out: HDAC inhibitory activities, HDAC 8
T2 construct: Reaction Biology Corp
T2 sequence (Q9BY41 1-377): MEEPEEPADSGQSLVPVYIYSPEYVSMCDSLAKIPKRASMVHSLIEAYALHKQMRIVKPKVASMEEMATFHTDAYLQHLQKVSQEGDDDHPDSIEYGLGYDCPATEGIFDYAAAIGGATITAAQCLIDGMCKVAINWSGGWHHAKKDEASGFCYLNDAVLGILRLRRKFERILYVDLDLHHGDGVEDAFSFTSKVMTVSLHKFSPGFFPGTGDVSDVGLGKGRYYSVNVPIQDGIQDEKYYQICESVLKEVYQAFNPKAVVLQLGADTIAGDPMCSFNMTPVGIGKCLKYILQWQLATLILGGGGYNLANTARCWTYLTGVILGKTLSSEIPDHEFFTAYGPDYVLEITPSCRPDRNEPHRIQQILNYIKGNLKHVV
Text: as §1

[2] = system: tubulin acetylation (HDAC6) in RPMI8226 cells; assay: Acetylation of Tubulin in cells by Western blot; type: cell-based; conditions: for concentration at which tubulin acetylation (HDAC6) was expressed: 24 hours
Protocol: To determine the selectivity for HDAC6 in cells, the acetylation levels of Tubulin, Histone H3 and Histone H4 depending on the concentration of compounds were measured by Western blot.
RPMI8226 (1.0×10^6 cells/well) cells were seeded on six-well plates and treated with drugs (Compounds 255 and 374) at each concentration. After 24 hours, the proteins were extracted with RIPA buffer and quantified by the Bradford method. 25 μg of protein was lysed in sample buffer, electrophoresed on a 4-12% gradient gel, and then transferred to nitrocellulose membranes for 50 minutes. Then transferred protein was blocked with 5% skim milk for 1 hour. Anti-acetyl H3 (1:2,000), anti-acetyl H4 (1:5,000), anti-acetyl tubulin (1:5,000), and anti-β-actin antibody (1:10,000) were added into 5% skim milk, and the membranes were immersed in the skim milk, reacted at 4° C. for 16 hours, and then washed three times for 10 minutes each with 1×TBS-T. Then, IgG-HRP antibody (1:5,000) was added into 5% skim milk, and then the membranes were immersed in the skim milk, reacted at room temperature for 40 minutes, and then washed three times for […] each with 1×TBS-T. Then, the acetylation levels were determined with a LAS 3000 using ECL solution.
The acetylation of tubulin, histone H3 and Histone H4 on RPMI8226 cells (1.0×10^6 cells/well) derived from myeloma was determined in the same manner as the cell determination in Example 1.

SMILES	IC50 (HDAC 6) [nM]	Selectivity (HDAC6/1) (HDAC 6)	selectivity for HDAC6 over HDAC1 (HDAC 6) [times]	clinical score ([1]; 3 mg/kg twice a day)	clinical score ([1]; 10 mg/kg twice a day)	clinical score ([1]; 30 mg/kg twice a day)	arthritis symptoms improved by [1] [%]	efficacy compared with the control compound Tofacitinib [1]	IC50 (HDAC 8) [nM]	cell selectivity (tubulin versus histone acetylation) [2]	concentration at which tubulin acetylation (HDAC6) was expressed [2]
O=C(NO)c1ccc(CN(C(=O)N2CCOCC2)c2cccc(C(F)(F)F)c2)cc1 [Compound 374, N-(4-(hydroxycarbamoyl)benzyl)-N-(3-(trifluoromethyl)phenyl)morpholine-4-carboxamide]	5	424	424	2.5	0.8	1.3	70 to 90	equivalent efficacy	2070	excellent cell selectivity	about 10 nM
O=C(NO)c1ccc(CN(C(=O)N2CCOCC2)c2cccc(Br)c2)cc1 [Compound 255, N-(3-bromophenyl)-N-(4-(hydroxycarbamoyl)benzyl)morpholine-4-carboxamide]	1	160	160	3.0	2.6	0.7	40 to 90	equivalent efficacy	650	excellent cell selectivity	about 10 nM
